Assay [1] concerns MDA-MB-231. The assay can be described thus: IC20 of E7389 for the cell line tested (MDA-MB-231). The class given is cell-based. The note with it: Homo sapiens. From the text:
Transfection conditions for human breast cancer cell lines MDA-MB-231 (ATCC Catalog No. HTB26™) and BT-549 (ATCC Catalog No. HTB122™) were optimized using transfection reagent DharmaFect 1 from Dharmacon. The MDA-MB-231 and BT-549 cell lines have been reported to be Estrogen Receptor (ER) negative, Progesterone Receptor (PR) negative and HER-2 negative (triple negative). As a non-targeting negative control we used Silencer Negative Control #1 siRNA from Applied Biosystems. The siGENOME TOX (siTOX) Transfection Control (Dharmacon), an RNA duplex designed to induce cell death, was used as a positive control for cell proliferation assays. A reverse transfection procedure in which siRNA was first mixed with transfection reagent and then cells were added to the well, was used in all experiments. Cell viability was compared in cells treated with medium, negative control siRNA and siTOX reagent combined with different amount of DharmaFect 1. […]
The whole human genome siRNA library was purchased from Dharmacon. […] Cell viability was determined at 96 hours after transfection by CellTiter-Glo luminescent assay from Promega. […] Plates were mixed for 2 minutes on a horizontal shaker, incubated for 10 minutes and read on an EnVision® multilabel plate reader from PerkinElmer.

The subject of assay [2] is BT-549 cells. Nature of the assay: IC20 of E7389 for BT-549 cells. The class given is cell-based. The following applies: Homo sapiens.

Where a name gives a salt, the structure may show the parent alone.

Usually IC20 stands for the point of the concentration-response curve where the effect stands at 20%. Read a low IC20 as an effect from little substance. Consider `C=C1C[C@@H]2CC[C@@]34C[C@H]5O[C@H]6C(O3)[C@H]3OC(CC[C@@H]3O[C@H]6[C@H]5O4)CC(=O)C[C@@H]3[C@@H](OC)[C@@H](C[C@H](O)CN)O[C@H]3CC3O[C@@H](CCC1O2)C[C@@H](C)C3=C` [E7389, 11,15:18,21:24,28-Triepoxy-7,9-ethano-12,15-methano-9H,15H-furo[3,2-i]furo[2′,3′:5,6]pyrano[4,3-b][1,4]dioxacyclopentacosin-5(4H)-one, 2-[(2S)-3-amino-2-hydroxypropyl]hexacosahydro-3-methoxy-26-methyl-20,27-bis(methylene)-, (2R,3R,3aS,7R,8aS,9S,10aR,11S,12R,13aR,13bS,15S,18S,21S,24S,26R,28R,29aS)-methanesulfonate (salt)], for which the IC20 was 0.75 nM in assay [1] and 0.25 nM in assay [2].
